Laboratory results reported in PubChem BioAssay AID330 (DTP/NCI, 2004).
“And” between values parts separate entries of the source, which are not always exact repeats. Identical values can stand only once. Toxic doses and inconclusive results are not listed. The calls were made as follows: active = survival T/C of 150% or more; inactive = T/C below 125% in these data.

System: P388 leukemia ip, CD2F1 mice, survival T/C
Assay: NCI In Vivo Anticancer Drug Screen. Data for tumor model P388 Leukemia (intraperitoneal) in CD2F1 (CDF1) mice
Settings: endpoint: median survival time, higher = longer survival
Summary of the method: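 Mice carrying the transplanted tumor received test compound or vehicle. Survival was recorded in each group, and the value is the treated-group measurement divided by that of the vehicle-treated control group.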

[1] = dose: 50.0 mg/kg/injection, schedule: Q01DX009 (ip), vehicle: saline with Tween-80
[2] = dose: 100.0 mg/kg/injection, schedule: Q01DX009 (ip), vehicle: saline with Tween-80
[3] = dose: 50.0 mg/kg/injection, schedule: Q01DX005 (ip), vehicle: saline with Tween-80
[4] = dose: 100.0 mg/kg/injection, schedule: Q01DX005 (ip), vehicle: saline with Tween-80
[5] = dose: 200.0 mg/kg/injection, schedule: Q01DX005 (ip), vehicle: saline with Tween-80
[6] = dose: 50.0 mg/kg/injection, schedule: Q01DX005 (ip), vehicle: Klucel (hydroxypropylcellulose) (HPC)
[7] = dose: 100.0 mg/kg/injection, schedule: Q01DX005 (ip), vehicle: Klucel (hydroxypropylcellulose) (HPC)
[8] = dose: 200.0 mg/kg/injection, schedule: Q01DX005 (ip), vehicle: Klucel (hydroxypropylcellulose) (HPC)
[9] = dose: 25.0 mg/kg/injection, schedule: Q01DX009 (ip), vehicle: saline with Tween-80
[10] = dose: 200.0 mg/kg/injection, schedule: Q01DX009 (ip), vehicle: saline with Tween-80
[11] = dose: 12.5 mg/kg/injection, schedule: Q01DX009 (ip), vehicle: saline with Tween-80

Measured: T/C

O=C1CCCCC2CC2C1=O (stereo unspecified) (tested in a mixture with another compound)
inactive: dose: 50.0 mg/kg/injection, schedule: Q01DX009 (ip), vehicle: other 101 % of control | dose: 100.0 mg/kg/injection, schedule: Q01DX009 (ip), vehicle: other 100 % of control | dose: 200.0 mg/kg/injection, schedule: Q01DX009 (ip), vehicle: other 108 % of control

O=[N+]([O-])c1ccccc1OCC(O)CCl (stereo unspecified)
inactive: [1] 102 % of control | [2] 99 % of control

CCNc1nc(NC(C)C)nc(N2CCc3ccccc3C2)n1
inactive: [3] 106 % of control | [4] 117 % of control | [5] 110 % of control

Cc1cc2c3c(c1)C(C(F)(F)F)(C(F)(F)F)OI3OC2(C(F)(F)F)C(F)(F)F
inactive: dose: 25.0 mg/kg/injection, schedule: Q01DX005 (ip), vehicle: Klucel (hydroxypropylcellulose) (HPC) 95 % of control | [6] 95 % of control | [7] 96 % of control | [8] 97 % of control

CC1C(=O)OC2C(O)C34C5OC(=O)C3(OC3OC(=O)C(O)C34C(C(C)(C)C)C5O)C12O (stereo unspecified)
inactive: dose: 5.0 mg/kg/injection, schedule: Q01DX005 (ip), vehicle: Klucel (hydroxypropylcellulose) (HPC) 93 % of control | dose: 10.0 mg/kg/injection, schedule: Q01DX005 (ip), vehicle: Klucel (hydroxypropylcellulose) (HPC) 95 % of control | dose: 20.0 mg/kg/injection, schedule: Q01DX005 (ip), vehicle: Klucel (hydroxypropylcellulose) (HPC) 89 % of control | dose: 40.0 mg/kg/injection, schedule: Q01DX005 (ip), vehicle: Klucel (hydroxypropylcellulose) (HPC) 93 % of control | dose: 80.0 mg/kg/injection, schedule: Q01DX005 (ip), vehicle: Klucel (hydroxypropylcellulose) (HPC) 89 % of control

O=C(CCBr)NCCNC(=O)CCBr
inactive: dose: 43.75 mg/kg/injection, schedule: Q01DX009 (ip), vehicle: saline 105 % of control | dose: 87.5 mg/kg/injection, schedule: Q01DX009 (ip), vehicle: saline 103 % of control | dose: 175.0 mg/kg/injection, schedule: Q01DX009 (ip), vehicle: saline 108 % of control

N=C(N)SCc1cccc(C(=O)O)c1
inactive: [6] 110 % of control | [7] 105 % of control | [8] 96 % of control

CCN(CC)C(=S)S[Se](SC(=S)N(CC)CC)(SC(=S)N(CC)CC)SC(=S)N(CC)CC
inactive: dose: 12.5 mg/kg/injection, schedule: Q01DX009 (ip), vehicle: Klucel (hydroxypropylcellulose) (HPC) 103 % of control | dose: 25.0 mg/kg/injection, schedule: Q01DX009 (ip), vehicle: Klucel (hydroxypropylcellulose) (HPC) 100 % of control | dose: 50.0 mg/kg/injection, schedule: Q01DX009 (ip), vehicle: Klucel (hydroxypropylcellulose) (HPC) 97 % of control | dose: 100.0 mg/kg/injection, schedule: Q01DX009 (ip), vehicle: Klucel (hydroxypropylcellulose) (HPC) 104 % of control

Cc1ccc(C)c2c1-c1ccccc1S2(=O)=O
inactive: [9] 110 % of control | [1] 111 % of control | [2] 109 % of control | [10] 102 % of control

CCCCCCCCCCCCCCCCCC[N+]1(CCCC)CCOCC1
inactive: [11] 102 % of control | [9] 108 % of control | [1] 101 % of control and 114 % of control

O=S1(=O)c2ccccc2C(O)(c2ccccc2)c2cc3ccccc3n21 (stereo unspecified)
inactive: [1] 93 % of control | [2] 96 % of control | [10] 92 % of control

FC(F)(F)c1ccc2c(N/N=C/c3ccc(N(CCCl)CCCl)cc3)ccnc2c1
inactive: dose: 100.0 mg/kg/injection, schedule: Q04DX003 (ip), vehicle: Klucel (hydroxypropylcellulose) (HPC) 111 % of control | dose: 200.0 mg/kg/injection, schedule: Q04DX003 (ip), vehicle: Klucel (hydroxypropylcellulose) (HPC) 99 % of control | dose: 400.0 mg/kg/injection, schedule: Q04DX003 (ip), vehicle: Klucel (hydroxypropylcellulose) (HPC) 90 % of control

CCN(CC)CCCC(C)Nc1c2ccc(C)cc2nc2ccc(OC)cc12 (stereo unspecified)
inactive: [11] 103 % of control | [1] 112 % of control

COP(=O)(O)OC
inactive: dose: 200.0 mg/kg/injection, schedule: Q01DX001 (ip), vehicle: Klucel (hydroxypropylcellulose) (HPC) 88 % of control | dose: 400.0 mg/kg/injection, schedule: Q01DX001 (ip), vehicle: Klucel (hydroxypropylcellulose) (HPC) 100 % of control

O=C(O)c1nnc(C(=O)O)nn1
inactive: dose: 6.25 mg/kg/injection, schedule: Q01DX009 (ip), vehicle: water 98 % of control | dose: 12.5 mg/kg/injection, schedule: Q01DX009 (ip), vehicle: water 103 % of control | dose: 25.0 mg/kg/injection, schedule: Q01DX009 (ip), vehicle: water 102 % of control | dose: 50.0 mg/kg/injection, schedule: Q01DX009 (ip), vehicle: water 100 % of control | dose: 100.0 mg/kg/injection, schedule: Q01DX009 (ip), vehicle: water 90 % of control

COc1ccc(/C=N/c2oc(-c3ccccc3)c(-c3ccccc3)c2-c2ccc(OC)cc2)cc1
inactive: dose: 12.5 mg/kg/injection, schedule: Q01DX005 (ip), vehicle: saline with Tween-80 92 % of control | dose: 25.0 mg/kg/injection, schedule: Q01DX005 (ip), vehicle: saline with Tween-80 87 % of control

C/C(=N\NC(=S)N1CCC(C)CC1)c1cccc2cccnc12
inactive: [3] 106 % of control | [4] 104 % of control

C/C(NN(C)C)=C(\C#N)C(=O)/C=C/c1cccs1
inactive: dose: 60.0 mg/kg/injection, schedule: Q01DX005 (ip), vehicle: saline with Tween-80 105 % of control | dose: 120.0 mg/kg/injection, schedule: Q01DX005 (ip), vehicle: saline with Tween-80 98 % of control | dose: 240.0 mg/kg/injection, schedule: Q01DX005 (ip), vehicle: saline with Tween-80 96 % of control

O=C1CC2COc3ccc(O)cc3C2=NN1c1ccccc1 (stereo unspecified)
inactive: [3] 94 % of control | [4] 98 % of control | [5] 94 % of control

Cc1ccc2[nH]c(N(C)C)nc2c2nc(Cl)nc1-2
inactive: dose: 8.25 mg/kg/injection, schedule: Q01DX005 (ip), vehicle: saline 108 % of control | dose: 16.5 mg/kg/injection, schedule: Q01DX005 (ip), vehicle: saline 103 % of control | dose: 33.0 mg/kg/injection, schedule: Q01DX005 (ip), vehicle: saline 100 % of control | dose: 66.0 mg/kg/injection, schedule: Q01DX005 (ip), vehicle: saline 97 % of control

CC1CCCCC1C(C)(C#N)Nc1ccccc1 (stereo unspecified)
inactive: [2] 109 % of control | [10] 113 % of control | dose: 400.0 mg/kg/injection, schedule: Q01DX009 (ip), vehicle: saline with Tween-80 118 % of control

O=[N+]([O-])c1cccc(N=Nn2cccc2)c1
inactive: [9] 100 % of control | [1] 100 % of control | [2] 109 % of control

CCOC(=O)C1=S=C(SCCO)N(C)C1=O
inactive: dose: 100.0 mg/kg/injection, schedule: Q04DX002 (ip), vehicle: saline with Tween-80 95 % of control | dose: 200.0 mg/kg/injection, schedule: Q04DX002 (ip), vehicle: saline with Tween-80 103 % of control | dose: 400.0 mg/kg/injection, schedule: Q04DX002 (ip), vehicle: saline with Tween-80 97 % of control

CC1(Cc2c(N)[nH]c(=S)[nH]c2=O)OCCO1
inactive: [3] 105 % of control | [4] 110 % of control | [5] 110 % of control

O=C1OC(CO)C(O)C2OC(=O)c3c(c(O)c(O)c(O)c3-c3c(O)c(O)c(O)c4c3C(=O)OC2C4O)-c2c1cc(O)c(O)c2O (stereo unspecified)
inactive: dose: 1.56 mg/kg/injection, schedule: Q01DX009 (ip), vehicle: saline 105 % of control | dose: 3.12 mg/kg/injection, schedule: Q01DX009 (ip), vehicle: saline 105 % of control | dose: 6.25 mg/kg/injection, schedule: Q01DX009 (ip), vehicle: saline 90 % of control

CCOC(=O)c1cc(=O)c2c(OC)ccc(OC)c2[nH]1
inactive: [3] 90 % of control | [4] 98 % of control | [5] 97 % of control
